Data as given in US20120302636A1, “METHOD OF TREATING A DISORDER ASSOCIATED WITH MTP” (priority 2009, published 2012).

What was measured:
[1] = Example 8: pharmacokinetics (trough concentrations)
Text: This example involved a clinical study of the compound of formula (I), which was a randomized, double-blind, placebo-controlled, parallel group study to evaluate the efficacy of the compound of formula (I) administered twice daily for twelve weeks in obese subjects.

[2] = Example 9: safety and tolerability; type: in vivo, human
Method: The study enrolled 16 obese male subjects (18-65 years of age (inclusive), with a body mass index (BMI) >30.0 kg/m^2 and <40.0 kg/m^2) who participated in two treatment periods. During Period 1, 8 subjects were randomized to receive 3.5 mg of the compound of formula (I), and 8 subjects were randomized to receive placebo. The compound of formula (I) or placebo was administered twice daily (BID), 30 minutes after the start of breakfast and dinner, for 10 days. All subjects were discharged from the clinic at the end of Period 1 for a 9±2 day discharge period. Subjects then returned for treatment during Period 2, in which (i) the group previously receiving the compound of formula (I) now received placebo, and (ii) the group previously receiving placebo now received the compound of formula (I), in accordance with the protocol described above.

Example 8: safety = type: in vivo, human
Text: The study had 180 participants.

[3] = Example 7: ascending dose study in obese subjects, pharmacokinetics
Method: This example involved a clinical study of the compound of formula (I), which was a randomized, double-blind, placebo-controlled, ascending dose study to evaluate the safety, tolerability and pharmacokinetics/pharmacodynamics of the compound of formula (I) tablets administered twice daily for two weeks in obese subjects.
The subjects were separated into four arms of nine (one with ten) test subjects (which were administered the compound of formula (I)) and three placebo subjects.

[4] = Example 4: 8-week study in hyperlipidemia, safety; type: in vivo, human
Method: (§1) One hundred five Japanese patients with hyperlipidemia (LDL-C between 140 and 220 mg/dL; TG≦400 mg/dL) participated in the study. […] For the efficacy analysis, 95 subjects were observed (0.5 mg BID: 25 subjects, 1 mg BID: 24 subjects, 2 mg BID: 22 subjects, 4 mg BID: 24 subjects).

LDL-C levels = assay: Example 4: 8-week study in hyperlipidemia, efficacy; type: in vivo, human
Method: as §1
The objective was to administer the compound of formula (I) orally to hyperlipidemic patients at a dose of 0.5, 1, 2, or 4 mg as capsules twice daily after the morning (e.g., breakfast) and evening meal (e.g., dinner) for eight weeks in order to explore a dose range in which the compound of formula (I) reduced LDL-C levels. In addition, the effects on lipid metabolism, safety, and pharmacokinetics of the compound of formula (I) were evaluated.

[5] = Example 2: repeated oral dose study of tablets QD or BID, safety; type: in vivo, human
Method: Each tablet contained 5 mg (BID), 10 mg (QD), 20 mg (QD), or 30 mg (QD).

## CCOC(=O)C(COC(=O)Cc1ccc(NC(=O)c2ccccc2-c2ccc(C(F)(F)F)cc2)c(C(=O)N(C)C)c1)(C(=O)OCC)c1ccccc1 [compound of formula (I), diethyl 2-((2-(3-(dimethylcarbamoyl)-4-(4′-(trifiuoromethyl)biphenyl-2-ylcarboxamido)phenyl)acetoxy)methyl)-2-phenyl malonate]
[1]; 1 mg BID
  trough concentrations of the compound of formula (I): not quantifiable
[1]; 2.5 and 3.5 mg BID
  trough concentrations of the compound of formula (I): quantifiable in a few subjects
[2]; 3.5 mg BID, 10 days
  deaths or serious adverse events: no deaths or serious adverse events
  subjects with at least one treatment-emergent adverse event: 53.3%
[2]; 3.5 mg BID, 10 days, fed conditions
  safety and tolerability: safe and well-tolerated
[2]; in vivo
  hematology, biochemistry, urinalysis, vital sign (including weight), ECG changes from baseline: No clinically meaningful mean changes
Example 8: safety; 1 mg BID
  incidence of drug-related decreased appetite: 4.4%
Example 8: safety; 2.5 mg BID
  incidence of drug-related decreased appetite: 20.0%
  subjects prematurely discontinued due to diarrhea: 1 subject
Example 8: safety; 3.5 mg BID
  incidence of drug-related decreased appetite: 22.2%
  subjects prematurely discontinued due to diarrhea: 2 subject
Example 8: safety; 1 to 3.5 mg BID, 12 weeks
  tolerability: generally well tolerated
Example 8: safety; in vivo
  fat-soluble vitamins or coagulation factors: no clinically significant changes
  liver function parameters (AST, ALT, alkaline phosphatase) PCS values: no subject had a PCS value
[3]; 1 mg, Day 14
  plasma concentrations of the compound of formula (I): not quantifiable
[3]; 2.5 mg and 3.5 mg groups, Day 14
  time up to which concentrations were quantifiable: up to 5 hr
[3]; 2.5 mg, Day 14
  subjects with quantifiable concentrations: 2 of 8 subjects
[3]; 3.5 mg, Day 14
  subjects with quantifiable concentrations: 7 of 8 subjects
[3]; 5 mg, Day 14
  subjects with quantifiable concentrations: 2 of 3 subjects
  time for which concentrations were quantifiable: at least 6 hr
[3]; 1 to 5 mg, Day 1
  plasma concentrations of the compound of formula (I): generally below the limit of quantization
[3]; 2.5 to 5 mg
  Cmax and AUC0-τ dose proportionality: approximately dose proportional
[3]; BID for 14 days
  systemic exposure: negligible
[3]; all dose levels
  parent/metabolite ratio for AUC0-τ: less than 0.01
  parent/metabolite ratio for Cmax: less than 0.03
[3]; quantifiable dose groups
  oral clearance: high oral clearance
[4]; 0.5 mg BID
  incidence of moderate diarrhea: 8.0%
  number of adverse events: 20
  number of moderate diarrhea events: 2
  subjects with adverse events (incidence): 44.0%
[4]; 1 mg BID
  incidence of diarrhea: 15.9%
  incidence of moderate diarrhea: 0.0%
  number of adverse events: 60
  number of diarrhea events: 6
  number of moderate diarrhea events: 0
  subjects with adverse events (incidence): 75.0%
[4]; 2 mg BID
  incidence of diarrhea: 24.0%
  incidence of moderate diarrhea: 12.0%
  number of adverse events: 51
  number of diarrhea events: 12
  number of moderate diarrhea events: 4
  subjects with adverse events (incidence): 80.0%
[4]; 4 mg BID
  incidence of diarrhea: 40.7%
  incidence of moderate diarrhea: 29.6%
  number of adverse events: 82
  number of diarrhea events: 21
  number of moderate diarrhea events: 13
  subjects with adverse events (incidence): 85.2%
[4]; 0.5-4 mg BID capsules, 8 weeks
  death or serious adverse events: neither death nor other serious adverse events occurred
[4]; 105 subjects
  events of gastrointestinal disorders: 117
  events of infections and infestations: 11
  events of investigations: 49
  events of metabolism and nutrition disorders: 7
  events of musculoskeletal, and connective tissue disorders: 7
  incidence of gastrointestinal disorders (SOC): 47.6%
  incidence of infections and infestations (SOC): 9.5%
  incidence of investigations (SOC): 31.4%
  incidence of metabolism and nutrition disorders (SOC): 6.7%
  incidence of moderate adverse events: 18.1%
  incidence of musculoskeletal, and connective tissue disorders (SOC): 6.7%
  laboratory abnormality ALT, subjects: 5.7%
  laboratory abnormality CPK, subjects: 6.7%
  laboratory abnormality CRP, subjects: 3.8%
  laboratory abnormality IP, subjects: 2.9%
  laboratory abnormality γ-GTP, subjects: 3.8%
  number of moderate adverse events: Twenty-six
[4]; all 105 subjects
  number of adverse events: 213
  subjects with adverse events (incidence): 71.45%
[4]; in vivo
  fat-soluble vitamins (vitamin A, 25-OH vitamin D, and vitamin E): no clinically significant changes
[4]; of 105 subjects
  subjects withdrawn from the study treatment because of adverse events: four
LDL-C levels; 0.5 mg BID
  mean percent change in LDL-C levels at Week 8 from baseline: −4.3%
LDL-C levels; 1 mg BID
  mean percent change in LDL-C levels at Week 8 from baseline: −4.5%
LDL-C levels; 2 mg BID
  mean percent change in LDL-C levels at Week 8 from baseline: −12.2%
LDL-C levels; 4 mg BID
  mean percent change in LDL-C levels at Week 8 from baseline: −12.3%
LDL-C levels; 2 and 4 mg BID
  ApoB and ApoE levels: decreased
LDL-C levels; 2 and 4 mg BID, throughout treatment
  TC levels: decreased
LDL-C levels; in vivo
  insulin, hemoglobin Alc, adiponectin, or leptin level: did not affect
LDL-C levels; treatment period
  ApoB48, ApoA-I, ApoA-II, ApoC-II, and ApoC-III levels: no significant changes
  time course of TG or HDL-C levels: no definite trend or dose correlation
[5]; 5 mg BID
  incidence of diarrhea: 100%
  incidence of moderate diarrhea: 66.7%
  incidence of vomiting (moderate): 16.7%
  number of diarrhea events: 7
  subjects with adverse events (incidence): 100.0%
  suitability as clinical dose for hyperlipidemic patients: inappropriate as a clinical dose
[5]; 10 mg QD
  subjects with adverse events (incidence): 50.0%
[5]; 20 mg QD
  incidence of diarrhea: 16.7%
  incidence of moderate diarrhea: 16.7%
  number of diarrhea events: One
  subjects with adverse events (incidence): 66.7%
[5]; 30 mg QD
  incidence of diarrhea: 66.7%
  incidence of moderate diarrhea: 50.0%
  number of diarrhea events: 4
  subjects with adverse events (incidence): 66.7%
  vitamin E levels: decreased on Day 7
[5]; 30 mg dose
  subjects with queasiness: 2 of 6 subjects
[5]; active group
  incidence of infection and infestation (SOC): 4.2%
  incidence of investigation (SOC): 20.8%
  incidence of metabolism and nutrition disorder (SOC): 4.2%
[5]; active group, 24 subjects
  incidence of gastrointestinal disorder (SOC): 58.3%
[5]; overall compound group
  incidence of CK increased: 12.5%
  incidence of abdomen enlarged feeling: 20.8%
  incidence of diarrhea: 45.8%
  incidence of loose stools: 20.8%
  incidence of stomach discomfort: 25.0%
  number of diarrhea events: Twelve
[5]; overall compound group, 24 subjects
  subjects with adverse events (incidence): 70.8%
[5]; remaining groups (10 mg QD, 20 mg QD, 5 mg BID)
  fat-soluble vitamin levels: did not decrease
[5]; tablets, 14 days
  death or serious adverse events: No death or other serious adverse events occurred
